{"source": "patent US5698522A", "about": "“6-position modified decapeptide LHRH antagonists” (Abbott Laboratories, priority 1995, dated 1997)", "note": "*1 amine or outer side, *2 acyl side, *3 side chain or, on linkers, in order; H or OH if unused. Where a SMILES comes first, the peptide text is derived from it. Side-chain parts run from the residue outwards. [ ]: non-standard residue; d: D form. The star is where a group is joined. NMePhe(4-NH(5-NH2-Trz-3-yl)) = CN[C@@H](Cc1ccc(Nc2n[nH]c(N)n2)cc1)C(=O)O; Shikimoyl = O=C(C1=C[C@@H](O)[C@@H](O)[C@H](O)C1)*; X5 = O=C(NCCCN*)C1=C[C@@H](O)[C@@H](O)[C@H](O)C1; dPhe(4-Cl) = N[C@H](Cc1ccc(Cl)cc1)C(=O)O; d2Nal = N[C@H](Cc1ccc2ccccc2c1)C(=O)O; Lys(iPr) = CC(C)NCCCC[C@H](N)C(=O)O; NMeY = CN[C@@H](Cc1ccc(O)cc1)C(=O)O; d3Pal = N[C@H](Cc1cccnc1)C(=O)O; Nicotinoyl = O=C(c1cccnc1)*; Picolinoyl = O=C(c1ccccn1)*; CO = O=C([*:1])[*:2]; Ava = NCCCCC(=O)O; azaGly = NNC(=O)O"}
{"target": "T1, LHRH receptor (Rattus norvegicus, UniProt P30969)", "T1 construct": "endogenous in cells", "T1 sequence (P30969 1-327)": "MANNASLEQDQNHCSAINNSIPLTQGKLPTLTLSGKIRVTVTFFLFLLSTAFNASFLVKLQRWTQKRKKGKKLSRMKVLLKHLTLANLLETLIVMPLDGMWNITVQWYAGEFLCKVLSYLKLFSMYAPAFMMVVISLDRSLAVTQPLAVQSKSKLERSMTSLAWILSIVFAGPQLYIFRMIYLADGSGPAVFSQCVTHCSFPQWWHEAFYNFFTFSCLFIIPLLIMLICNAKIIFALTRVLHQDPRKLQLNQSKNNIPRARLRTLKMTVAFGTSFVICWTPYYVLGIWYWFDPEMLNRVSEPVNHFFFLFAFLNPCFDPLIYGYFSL", "experiment": "in vitro LHRH antagonist potency (pA2) against the agonist leuprolide", "format": "cell-based", "settings": "negative logarithm of the antagonist concentration which shifts the response curve produced by the agonist leuprolide to two-fold higher concentration", "summary_of_the_method": "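Functional antagonism against the agonist leuprolide. pA2 is the negative log of antagonist concentration that shifts the leuprolide response curve to twofold higher concentration.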", "units": {"Kb": "nM"}}
{"smiles": "CC(=O)N[C@H](Cc1ccc2ccccc2c1)C(=O)N[C@H](Cc1ccc(Cl)cc1)C(=O)N[C@H](Cc1cccnc1)C(=O)N[C@@H](CO)C(=O)N(C)[C@@H](Cc1ccc(O)cc1)C(=O)N[C@H](CCCCNC(=O)[C@@H](C)NC(=O)C1=C[C@@H](O)[C@@H](O)[C@H](O)C1)C(=O)N[C@@H](CC(C)C)C(=O)N[C@@H](CCCNC(=N)N)C(=O)N1CCC[C@H]1C(=O)N[C@H](C)C(N)=O", "note": "[Example 38a, NAc-D2Nal^1 -D4ClPhe^2 -D3Pal^3 -Ser^4 -NMeTyr^5 -DLys(N-epsilon-DAla-Shikimyl)^6 -Leu^7 -Arg^8 -Pro^9 -DAla^10 NH2] (Ac-[d2Nal][dPhe(4-Cl)][d3Pal]S[NMeY][dK]([dA-Shikimoyl])LRP[dA]-NH2)", "Kb": 0.0282}
{"smiles": "CC(=O)N[C@H](Cc1ccc2ccccc2c1)C(=O)N[C@H](Cc1ccc(Cl)cc1)C(=O)N[C@H](Cc1cccnc1)C(=O)N[C@@H](CO)C(=O)N(C)[C@@H](Cc1ccc(O)cc1)C(=O)N[C@H](CCCCNC(=O)[C@H](NC(=O)C1=C[C@@H](O)[C@@H](O)[C@H](O)C1)[C@H](C)O)C(=O)N[C@@H](CC(C)C)C(=O)N[C@@H](CCCNC(=N)N)C(=O)N1CCC[C@H]1C(=O)N[C@H](C)C(N)=O", "note": "[Example 38d, NAc-D2Nal^1 -D4ClPhe^2 -D3Pal^3 -Ser^4 -NMeTyr^5 -DLys(N-epsilon-DThr-Shikimyl)^6 -Leu^7 -Arg^8 -Pro^9 -DAla^10 NH2] (Ac-[d2Nal][dPhe(4-Cl)][d3Pal]S[NMeY][dK]([dT-Shikimoyl])LRP[dA]-NH2)", "Kb": 0.02}
{"smiles": "CC(=O)N[C@H](Cc1ccc2ccccc2c1)C(=O)N[C@H](Cc1ccc(Cl)cc1)C(=O)N[C@H](Cc1cccnc1)C(=O)N[C@@H](CO)C(=O)N(C)[C@@H](Cc1ccc(O)cc1)C(=O)N[C@H](CCCCNC(=O)[C@@H](Cc1c[nH]cn1)NC(=O)C1=C[C@@H](O)[C@@H](O)[C@H](O)C1)C(=O)N[C@@H](CC(C)C)C(=O)N[C@@H](CCCNC(=N)N)C(=O)N1CCC[C@H]1C(=O)N[C@H](C)C(N)=O", "note": "[Example 38e, NAc-D2Nal^1 -D4ClPhe^2 -D3Pal^3 -Ser^4 -NMeTyr^5 -DLys(N-epsilon-DHis-Shikimyl)^6 -Leu^7 -Arg^8 -Pro^9 -DAla^10 NH2] (Ac-[d2Nal][dPhe(4-Cl)][d3Pal]S[NMeY][dK]([dH-Shikimoyl])LRP[dA]-NH2)", "Kb": 0.0437}
{"smiles": "CC(=O)N[C@H](Cc1ccc2ccccc2c1)C(=O)N[C@H](Cc1ccc(Cl)cc1)C(=O)N[C@H](Cc1cccnc1)C(=O)N[C@@H](CO)C(=O)N(C)[C@@H](Cc1ccc(O)cc1)C(=O)N[C@H](CCCCNC(=O)[C@@H](Cc1cccnc1)NC(=O)C1=C[C@@H](O)[C@@H](O)[C@H](O)C1)C(=O)N[C@@H](CC(C)C)C(=O)N[C@@H](CCCNC(=N)N)C(=O)N1CCC[C@H]1C(=O)N[C@H](C)C(N)=O", "note": "[Example 38f, NAc-D2Nal^1 -D4ClPhe^2 -D3Pal^3 -Ser^4 -NMeTyr^5 -DLys(N-epsilon-D3Pal-Shikimyl)^6 -Leu^7 -Arg^8 -Pro^9 -DAla^10 NH2] (Ac-[d2Nal][dPhe(4-Cl)][d3Pal]S[NMeY][dK]([d3Pal-Shikimoyl])LRP[dA]-NH2)", "Kb": 0.0214}
{"smiles": "CC(=O)N[C@H](Cc1ccc2ccccc2c1)C(=O)N[C@H](Cc1ccc(Cl)cc1)C(=O)N[C@H](Cc1cccnc1)C(=O)N[C@@H](CO)C(=O)N(C)[C@@H](Cc1ccc(O)cc1)C(=O)N[C@H](CCCCNC(=O)NCCCNC(=O)C1=C[C@@H](O)[C@@H](O)[C@H](O)C1)C(=O)N[C@@H](CC(C)C)C(=O)N[C@@H](CCCNC(=N)N)C(=O)N1CCC[C@H]1C(=O)N[C@H](C)C(N)=O", "note": "[Example 42, NAc-D2Nal^1 -D4ClPhe^2 -D3Pal^3 -Ser^4 -NMeTyr^5 -DLys[N-epsilon-(N'-Carbonyl-Diaminopropane-N\"-Shikimyl)]^6 -Leu^7 -Arg^8 -Pro^9 -DAla^10 NH2] (Ac-[d2Nal][dPhe(4-Cl)][d3Pal]S[NMeY][dK]([CO-X5])LRP[dA]-NH2)", "Kb": 0.0257}
{"smiles": "CC(=O)N[C@H](Cc1ccc2ccccc2c1)C(=O)N[C@H](Cc1ccc(Cl)cc1)C(=O)N[C@H](Cc1cccnc1)C(=O)N[C@@H](CO)C(=O)N(C)[C@@H](Cc1ccc(O)cc1)C(=O)N[C@H](CCCCNC(=O)CCCCNC(=O)c1cccnc1)C(=O)N[C@@H](CC(C)C)C(=O)N[C@@H](CCCCNC(C)C)C(=O)N1CCC[C@H]1C(=O)N[C@H](C)C(N)=O", "note": "[Example 43, NAc-D2Nal^1 -D4ClPhe^2 -D3Pal^3 -Ser^4 -NMeTyr^5 -DLys(N-epsilon-5-Aminovaleryl-Nicotinyl)^6 -Leu^7 -Lys(N-epsilon-Isopropyl)^8 -Pro^9 -DAla^10 NH2] (Ac-[d2Nal][dPhe(4-Cl)][d3Pal]S[NMeY][dK]([Ava-Nicotinoyl])L[Lys(iPr)]P[dA]-NH2)", "Kb": 0.00851}
{"smiles": "CC(=O)N[C@H](Cc1ccc2ccccc2c1)C(=O)N[C@H](Cc1ccc(Cl)cc1)C(=O)N[C@H](Cc1cccnc1)C(=O)N[C@@H](CO)C(=O)N(C)[C@@H](Cc1ccc(Nc2n[nH]c(N)n2)cc1)C(=O)N[C@H](CCCCNC(=O)CNC(=O)c1cccnc1)C(=O)N[C@@H](CC(C)C)C(=O)N[C@@H](CCCCNC(C)C)C(=O)N1CCC[C@H]1C(=O)N[C@H](C)C(N)=O", "note": "[Example 45, NAc-D2Nal^1 -D4ClPhe^2 -D3Pal^3 -Ser^4 -NMePhe(Atz)^5 -DLys(N-epsilon-Gly-Nicotinyl)^6 -Leu^7 -Lys(N-epsilon-Isopropyl)^8 -Pro^9 -DAla^10 NH2] (Ac-[d2Nal][dPhe(4-Cl)][d3Pal]S[NMePhe(4-NH(5-NH2-Trz-3-yl))][dK]([Gly-Nicotinoyl])L[Lys(iPr)]P[dA]-NH2)", "Kb": 0.00417}
{"smiles": "CC(=O)N[C@H](Cc1ccc2ccccc2c1)C(=O)N[C@H](Cc1ccc(Cl)cc1)C(=O)N[C@H](Cc1cccnc1)C(=O)N[C@@H](CO)C(=O)N(C)[C@@H](Cc1ccc(Nc2n[nH]c(N)n2)cc1)C(=O)N[C@H](CCCCNC(=O)NNC(=O)c1cccnc1)C(=O)N[C@@H](CC(C)C)C(=O)N[C@@H](CCCCNC(C)C)C(=O)N1CCC[C@H]1C(=O)N[C@H](C)C(N)=O", "note": "[Example 46, NAc-D2Nal^1 -D4ClPhe^2 -D3Pal^3 -Ser^4 -NMePhe(Atz)^5 -DLys(N-epsilon-Azagly-Nicotinyl)^6 -Leu^7 -Lys(N-epsilon-Isopropyl)^8 -Pro^9 -DAla^10 NH2] (Ac-[d2Nal][dPhe(4-Cl)][d3Pal]S[NMePhe(4-NH(5-NH2-Trz-3-yl))][dK]([azaGly-Nicotinoyl])L[Lys(iPr)]P[dA]-NH2)", "Kb": 0.011}
{"smiles": "CC(=O)N[C@H](Cc1ccc2ccccc2c1)C(=O)N[C@H](Cc1ccc(Cl)cc1)C(=O)N[C@H](Cc1cccnc1)C(=O)N[C@@H](CO)C(=O)N(C)[C@@H](Cc1ccc(O)cc1)C(=O)N[C@H](CCCCNC(=O)CNC(=O)c1ccccn1)C(=O)N[C@@H](CC(C)C)C(=O)N[C@@H](CCCNC(=N)N)C(=O)N1CCC[C@H]1C(=O)N[C@H](C)C(N)=O", "note": "[Example 48a, NAc-D2Nal^1 -D4ClPhe^2 -D3Pal^3 -Ser^4 -NMeTyr^5 -DLys(N-epsilon-Gly-Picolinyl)^6 -Leu^7 -Arg^8 -Pro^9 -DAla^10 NH2] (Ac-[d2Nal][dPhe(4-Cl)][d3Pal]S[NMeY][dK]([Gly-Picolinoyl])LRP[dA]-NH2)", "Kb": 0.00794}
{"smiles": "CC(=O)N[C@H](Cc1ccc2ccccc2c1)C(=O)N[C@H](Cc1ccc(Cl)cc1)C(=O)N[C@H](Cc1cccnc1)C(=O)N[C@@H](CO)C(=O)N(C)[C@@H](Cc1ccc(O)cc1)C(=O)N[C@H](CCCCNC(=O)[C@@H](CO)NC(=O)c1ccccn1)C(=O)N[C@@H](CC(C)C)C(=O)N[C@@H](CCCNC(=N)N)C(=O)N1CCC[C@H]1C(=O)N[C@H](C)C(N)=O", "note": "[Example 48b, NAc-D2Nal^1 -D4ClPhe^2 -D3Pal^3 -Ser^4 -NMeTyr^5 -DLys(N-epsilon-D-Ser-Picolinyl)^6 -Leu^7 -Arg^8 -Pro^9 -DAla^10 NH2] (Ac-[d2Nal][dPhe(4-Cl)][d3Pal]S[NMeY][dK]([dS-Picolinoyl])LRP[dA]-NH2)", "Kb": 0.0372}
{"smiles": "CC(=O)N[C@H](Cc1ccc2ccccc2c1)C(=O)N[C@H](Cc1ccc(Cl)cc1)C(=O)N[C@H](Cc1cccnc1)C(=O)N[C@@H](CO)C(=O)N(C)[C@@H](Cc1ccc(O)cc1)C(=O)N[C@H](CCCCNC(=O)[C@H](NC(=O)C1=C[C@@H](O)[C@@H](O)[C@H](O)C1)[C@H](C)O)C(=O)N[C@@H](CC(C)C)C(=O)N[C@@H](CCCNC(=N)N)C(=O)N1CCC[C@H]1C(=O)N[C@H](C)C(N)=O", "note": "[Example 48c, NAc-D2Nal^1 -D4ClPhe^2 -D3Pal^3 -Ser^4 -NMeTyr^5 -DLys(N-epsilon-D-Thr-Shikimyl)^6 -Leu^7 -Arg^8 -Pro^9 -DAla^10 NH2] (Ac-[d2Nal][dPhe(4-Cl)][d3Pal]S[NMeY][dK]([dT-Shikimoyl])LRP[dA]-NH2)", "Kb": 0.0288}
{"smiles": "CC(=O)N[C@H](Cc1ccc2ccccc2c1)C(=O)N[C@H](Cc1ccc(Cl)cc1)C(=O)N[C@H](Cc1cccnc1)C(=O)N[C@@H](CO)C(=O)N(C)[C@@H](Cc1ccc(O)cc1)C(=O)N[C@H](CCCCNC(=O)[C@@H](C)NC(=O)C1=C[C@@H](O)[C@@H](O)[C@H](O)C1)C(=O)N[C@@H](CC(C)C)C(=O)N[C@@H](CCCNC(=N)N)C(=O)N1CCC[C@H]1C(=O)N[C@H](C)C(N)=O", "note": "[Example 48d, NAc-D2Nal^1 -D4ClPhe^2 -D3Pal^3 -Ser^4 -NMeTyr^5 -DLys(N-epsilon-D-Ala-Shikimyl)^6 -Leu^7 -Arg^8 -Pro^9 -DAla^10 NH2] (Ac-[d2Nal][dPhe(4-Cl)][d3Pal]S[NMeY][dK]([dA-Shikimoyl])LRP[dA]-NH2)", "Kb": 0.0126}
